Experiment [1] has as its target T1, intracellular phosphorylation of EGFR in NCI-H1975 cell line that harbors the EGFR L858R T790M mutations (Homo sapiens, UniProt P00533, L858R/T790M).
T1 construct: NCI-H1975 cell line that harbors the EGFR L858R T790M mutations (ATCC, CRL-5908); host or cells: NCI-H1975
The experiment can be described thus: NCI-H1975 pEGFR AlphaLISA assay. The class given is cell-based. The conditions noted are these: NCI-H1975 cells (EGFR L858R T790M), p-EGFR (Tyr1068), 4-5 hours incubation; read-out: Ext pEGFR H1975 GMean IC50 (nM) Protocol: @Pharmaron AlphaLISA (Num). As to the method: On the next day, the test compounds and DMSO control were added into H1975 cell plate followed by incubation at 37C/5% CO2 for 4-5 hours. […] Then 5 μL of a donor bead mix was added to each well followed by overnight incubation at room temperature in dark. On the next day, the plate was read at a compatible plate reader to obtain pEGFR signal. Percent of pEGFR inhibition was plotted against log concentration of compounds to generate IC50 values.
(Bead proximity is the source of the signal in Alpha formats.)

For a further experiment, the target named is T2, EGFR (L858R T790M C797S) (Homo sapiens, UniProt P00533, C797S/L858R/T790M).
T2 construct: purchased SignalChem E10-122VG
The experiment is described as follows: Biochemical EGFR inhibition assay (Caliper mobility shift), EGFR LRTMCS. Conditions: LRTMCS (PH) IC50 (nM) @ 1 mM ATP (Num), EGFR LRTMCS mutant. In a few lines:
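Each enzyme was allowed to phosphorylate 10–20% of its peptide at 25° C. before EDTA (35 mM) quench. Separated substrate and product peaks were measured by mobility shift, giving apparent IC50 values.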

Molecules are shown by their SMILES. A value given as a limit tells only on which side of the number the result lay.

T2 sequence (P00533 25-1210 T790M/C797S/L858R): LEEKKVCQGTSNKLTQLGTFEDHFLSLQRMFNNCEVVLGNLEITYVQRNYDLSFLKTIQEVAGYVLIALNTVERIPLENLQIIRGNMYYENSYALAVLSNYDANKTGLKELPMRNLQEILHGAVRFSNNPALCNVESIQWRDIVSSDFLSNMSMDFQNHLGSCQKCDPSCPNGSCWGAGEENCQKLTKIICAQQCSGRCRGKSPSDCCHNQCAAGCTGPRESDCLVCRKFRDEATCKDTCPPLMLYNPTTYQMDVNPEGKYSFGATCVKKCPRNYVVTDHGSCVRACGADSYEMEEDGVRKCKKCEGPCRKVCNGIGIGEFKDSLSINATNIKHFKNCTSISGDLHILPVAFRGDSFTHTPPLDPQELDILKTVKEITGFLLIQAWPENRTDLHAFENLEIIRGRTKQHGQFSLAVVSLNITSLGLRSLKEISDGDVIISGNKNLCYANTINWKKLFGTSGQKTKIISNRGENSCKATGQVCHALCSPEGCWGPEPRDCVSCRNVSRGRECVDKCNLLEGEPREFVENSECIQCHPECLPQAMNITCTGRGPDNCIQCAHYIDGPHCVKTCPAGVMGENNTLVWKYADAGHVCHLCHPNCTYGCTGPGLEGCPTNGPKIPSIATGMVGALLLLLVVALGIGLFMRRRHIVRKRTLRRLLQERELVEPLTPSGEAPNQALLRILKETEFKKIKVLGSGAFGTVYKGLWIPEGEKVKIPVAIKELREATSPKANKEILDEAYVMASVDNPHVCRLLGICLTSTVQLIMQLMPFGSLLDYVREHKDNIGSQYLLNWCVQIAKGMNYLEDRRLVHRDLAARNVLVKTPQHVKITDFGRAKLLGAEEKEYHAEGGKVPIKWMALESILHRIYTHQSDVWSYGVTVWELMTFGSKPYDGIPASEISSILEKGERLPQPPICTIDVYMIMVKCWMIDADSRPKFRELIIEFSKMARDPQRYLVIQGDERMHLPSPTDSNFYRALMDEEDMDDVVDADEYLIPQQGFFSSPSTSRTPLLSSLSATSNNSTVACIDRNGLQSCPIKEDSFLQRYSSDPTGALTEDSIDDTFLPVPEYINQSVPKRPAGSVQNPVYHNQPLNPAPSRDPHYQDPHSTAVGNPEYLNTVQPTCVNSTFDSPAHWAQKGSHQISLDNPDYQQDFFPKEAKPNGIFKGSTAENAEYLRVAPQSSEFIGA
T1 sequence (P00533 25-1210 T790M/L858R): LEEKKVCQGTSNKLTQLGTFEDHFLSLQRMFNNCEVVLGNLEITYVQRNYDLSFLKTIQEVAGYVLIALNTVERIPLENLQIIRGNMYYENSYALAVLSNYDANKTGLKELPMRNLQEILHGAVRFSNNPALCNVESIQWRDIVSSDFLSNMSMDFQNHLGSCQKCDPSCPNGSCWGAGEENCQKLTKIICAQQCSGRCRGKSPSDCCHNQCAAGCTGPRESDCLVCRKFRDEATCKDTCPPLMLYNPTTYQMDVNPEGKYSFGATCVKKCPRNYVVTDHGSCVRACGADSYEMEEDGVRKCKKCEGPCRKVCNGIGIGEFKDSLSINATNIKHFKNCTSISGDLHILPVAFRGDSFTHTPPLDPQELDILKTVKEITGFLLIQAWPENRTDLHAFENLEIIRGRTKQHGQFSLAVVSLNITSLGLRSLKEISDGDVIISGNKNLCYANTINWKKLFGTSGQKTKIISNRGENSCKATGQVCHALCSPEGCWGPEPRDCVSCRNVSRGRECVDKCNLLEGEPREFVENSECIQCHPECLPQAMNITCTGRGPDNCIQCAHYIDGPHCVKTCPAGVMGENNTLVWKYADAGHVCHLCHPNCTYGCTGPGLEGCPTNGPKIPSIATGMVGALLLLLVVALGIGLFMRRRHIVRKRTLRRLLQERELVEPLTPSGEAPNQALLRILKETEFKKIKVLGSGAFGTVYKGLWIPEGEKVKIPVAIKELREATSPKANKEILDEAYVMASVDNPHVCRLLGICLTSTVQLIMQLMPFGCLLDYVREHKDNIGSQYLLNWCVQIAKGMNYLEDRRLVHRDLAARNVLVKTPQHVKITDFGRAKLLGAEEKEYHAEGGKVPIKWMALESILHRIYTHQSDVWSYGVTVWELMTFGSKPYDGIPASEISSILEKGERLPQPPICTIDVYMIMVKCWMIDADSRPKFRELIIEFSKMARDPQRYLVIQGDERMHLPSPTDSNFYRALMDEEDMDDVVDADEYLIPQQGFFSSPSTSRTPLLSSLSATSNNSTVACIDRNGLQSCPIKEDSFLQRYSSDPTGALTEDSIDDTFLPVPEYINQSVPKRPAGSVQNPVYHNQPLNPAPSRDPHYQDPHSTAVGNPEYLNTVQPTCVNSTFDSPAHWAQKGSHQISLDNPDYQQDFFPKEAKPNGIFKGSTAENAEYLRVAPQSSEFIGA

The IC50 is the concentration that inhibits the measured activity by half. With `CC(C)c1cnc(N2C[C@@H](F)[C@@H](F)C2)c2cnc(Nc3ccnc(N4CC[C@@H](O)[C@@](C)(F)C4)n3)cc12` [Example 56, (3S,4R)-1-(4-((8-(cis-3,4-difluoropyrrolidin-1-yl)-5-isopropyl-2,7-naphthyridin-3-yl)amino)pyrimidin-2-yl)-3-fluoro-3-methylpiperidin-4-ol], the values for the IC50 (in experiment [1]; on EGFR (L858R T790M C797S)) were greater than 50 nM and less than 15 nM, respectively.
For `CC(C)c1cnc(N2CCC(F)(F)C2)c2cnc(Nc3ccnc(N4CC[C@@H](O)[C@@](C)(F)C4)n3)cc12` [Example 57, (3S,4R)-1-(4-((8-(3,3-difluoropyrrolidin-1-yl)-5-isopropyl-2,7-naphthyridin-3-yl)amino)pyrimidin-2-yl)-3-fluoro-3-methylpiperidin-4-ol], in that order: 20 to 30 nM and less than 15 nM.
The like results for `CC(C)c1cnc(N2CC(C#N)C2)c2cnc(Nc3ccnc(N4CC[C@@H](O)[C@@](C)(F)C4)n3)cc12` [Example 58, 1-(6-((2-((3S,4R)-3-fluoro-4-hydroxy-3-methylpiperidin-1-yl)pyrimidin-4-yl)amino)-4-isopropyl-2,7-naphthyridin-1-yl)azetidine-3-carbonitrile] were, in that order, 10 to 20 nM and less than 15 nM.
For `CC(C)c1cnc(N2CC3(C2)CC3(F)F)c2cnc(Nc3ccnc(N4CC[C@@H](O)[C@@](C)(F)C4)n3)cc12` [Example 59, (3S,4R)-1-(4-((8-(1,1-difluoro-5-azaspiro[2.3]hexan-5-yl)-5-isopropyl-2,7-naphthyridin-3-yl)amino)pyrimidin-2-yl)-3-fluoro-3-methylpiperidin-4-ol], in that order: 10 to 20 nM and less than 15 nM.
Consider `CC(C)c1cnc(N2CC(CO)C2)c2cnc(Nc3ccnc(N4CC[C@@H](O)[C@@](C)(F)C4)n3)cc12` [Example 61, (3S,4R)-3-fluoro-1-(4-((8-(3-(hydroxymethyl)azetidin-1-yl)-5-isopropyl-2,7-naphthyridin-3-yl)amino)pyrimidin-2-yl)-3-methylpiperidin-4-ol], for which the values for the IC50 (in experiment [1]; at EGFR (L858R T790M C797S)) were 30 to 50 nM and less than 15 nM, respectively.
For `CC(C)c1cnc(N2CC(O)C2)c2cnc(Nc3ccnc(N4CC[C@@H](O)[C@@](C)(F)C4)n3)cc12` [Example 62, (3S,4R)-3-fluoro-1-(4-((8-(3-hydroxyazetidin-1-yl)-5-isopropyl-2,7-naphthyridin-3-yl)amino)pyrimidin-2-yl)-3-methylpiperidin-4-ol], in that order: 30 to 50 nM and less than 15 nM.
The like results for `CC(C)c1cnc(N2CCC3(C2)CC3(F)F)c2cnc(Nc3ccnc(N4CC[C@@H](O)[C@@](C)(F)C4)n3)cc12` (stereo partly drawn) [Example 63, (3S,4R)-1-(4-((8-(1,1-difluoro-5-azaspiro[2.4]heptan-5-yl)-5-isopropyl-2,7-naphthyridin-3-yl)amino)pyrimidin-2-yl)-3-fluoro-3-methylpiperidin-4-ol] were, in that order, 20 to 30 nM and 15 to 20 nM.
Regarding `COCCN1CC2(CCN2c2ncc(C(C)C)c3cc(Nc4ccnc(N5CC[C@@H](O)[C@@](C)(F)C5)n4)ncc23)C1` [Example 64, (3S,4R)-3-fluoro-1-(4-((5-isopropyl-8-(6-(2-methoxyethyl)-1,6-diazaspiro[3.3]heptan-1-yl)-2,7-naphthyridin-3-yl)amino)pyrimidin-2-yl)-3-methylpiperidin-4-ol], the IC50 is 30 to 50 nM in experiment [1] and less than 15 nM on EGFR (L858R T790M C797S).
The like results for `COCC1CN(c2ncc(C(C)C)c3cc(Nc4ccnc(N5CC[C@@H](O)[C@@](C)(F)C5)n4)ncc23)C1` [Example 66, (3S,4R)-3-fluoro-1-(4-((5-isopropyl-8-(3-(methoxymethyl)azetidin-1-yl)-2,7-naphthyridin-3-yl)amino)pyrimidin-2-yl)-3-methylpiperidin-4-ol] were, in that order, 30 to 50 nM and 20 to 30 nM.
On to `CC(C)c1cnc(N2CC(F)(CO)C2)c2cnc(Nc3ccnc(N4CC[C@@H](O)[C@@](C)(F)C4)n3)cc12` [Example 67, (3S,4R)-3-fluoro-1-(4-((8-(3-fluoro-3-(hydroxymethyl)azetidin-1-yl)-5-isopropyl-2,7-naphthyridin-3-yl)amino)pyrimidin-2-yl)-3-methylpiperidin-4-ol], for which the IC50 is greater than 50 nM in experiment [1] and 15 to 20 nM at EGFR (L858R T790M C797S).
The like results for `COCC1(F)CN(c2ncc(C(C)C)c3cc(Nc4ccnc(N5CC[C@@H](O)[C@@](C)(F)C5)n4)ncc23)C1` [Example 68, (3S,4R)-3-fluoro-1-(4-((8-(3-fluoro-3-(methoxymethyl)azetidin-1-yl)-5-isopropyl-2,7-naphthyridin-3-yl)amino)pyrimidin-2-yl)-3-methylpiperidin-4-ol] were, in that order, 30 to 50 nM and 20 to 30 nM.
Turning to `CC(C)c1cnc(N2CC(S(C)(=O)=O)C2)c2cnc(Nc3ccnc(N4CC[C@@H](O)[C@@](C)(F)C4)n3)cc12` [Example 69, (3S,4R)-3-fluoro-1-(4-((5-isopropyl-8-(3-(methylsulfonyl)azetidin-1-yl)-2,7-naphthyridin-3-yl)amino)pyrimidin-2-yl)-3-methylpiperidin-4-ol], the IC50 was 30 to 50 nM in experiment [1] and less than 15 nM at EGFR (L858R T790M C797S).
The like results for `CC(=O)NCC1CCN1c1ncc(C(C)C)c2cc(Nc3ccnc(N4CC[C@@H](O)[C@@](C)(F)C4)n3)ncc12` (stereo partly drawn) [Example 70, N-((1-(6-((2-((3S,4R)-3-fluoro-4-hydroxy-3-methylpiperidin-1-yl)pyrimidin-4-yl)amino)-4-isopropyl-2,7-naphthyridin-1-yl)azetidin-2-yl)methyl)acetamide] were, in that order, greater than 50 nM and 15 to 20 nM.
Consider `CC(C)c1cnc(N2CC3(CN(C)C(=O)O3)C2)c2cnc(Nc3ccnc(N4CC[C@@H](O)[C@@](C)(F)C4)n3)cc12` [Example 71, 2-(6-((2-((3S,4R)-3-fluoro-4-hydroxy-3-methylpiperidin-1-yl)pyrimidin-4-yl)amino)-4-isopropyl-2,7-naphthyridin-1-yl)-7-methyl-5-oxa-2,7-diazaspiro[3.4]octan-6-one], for which the results for the IC50 (in experiment [1]; on EGFR (L858R T790M C797S)) were 30 to 50 nM and 20 to 30 nM, respectively.
`CC(C)c1cnc(N2CC(O)(CC#N)C2)c2cnc(Nc3ccnc(N4CC[C@@H](O)[C@@](C)(F)C4)n3)cc12` [Example 72, 2-(1-(6-((2-((3S,4R)-3-fluoro-4-hydroxy-3-methylpiperidin-1-yl)pyrimidin-4-yl)amino)-4-isopropyl-2,7-naphthyridin-1-yl)-3-hydroxyazetidin-3-yl)acetonitrile]: the IC50 was greater than 50 nM in experiment [1] and 15 to 20 nM at EGFR (L858R T790M C797S).
The like results for `CC(C)c1cnc(N2CC(C#N)(CO)C2)c2cnc(Nc3ccnc(N4CC[C@@H](O)[C@@](C)(F)C4)n3)cc12` [Example 73, 1-(6-((2-((3S,4R)-3-fluoro-4-hydroxy-3-methylpiperidin-1-yl)pyrimidin-4-yl)amino)-4-isopropyl-2,7-naphthyridin-1-yl)-3-(hydroxymethyl)azetidine-3-carbonitrile] were, in that order, greater than 50 nM and 30 to 100 nM.
For `CC(C)c1cnc(N2CC[C@@H](S(C)(=O)=O)C2)c2cnc(Nc3ccnc(N4CC[C@@H](O)[C@@](C)(F)C4)n3)cc12` [Example 74, (3S,4R)-3-fluoro-1-(4-((5-isopropyl-8-((R)-3-(methylsulfonyl)pyrrolidin-1-yl)-2,7-naphthyridin-3-yl)amino)pyrimidin-2-yl)-3-methylpiperidin-4-ol], in that order: less than 10 nM and less than 15 nM.

Values taken from patent publication US20240382483A1, “HETEROCYCLIC EGFR INHIBITORS FOR USE IN THE TREATMENT OF CANCER” (Blueprint Medicines Corporation, priority 2021, published 2024).
